PMC10486429, “Investigations Using Albumin Binders to Modify the Tissue Distribution Profile of Radiopharmaceuticals Exemplified with Folate Radioconjugates” (Cancers, 2023)

How the values were obtained:
[1] = Radiolytic stability of 177Lu-DOTA-ALBs in PBS (HPLC); assay type: physicochemical; conditions: room temperature, 100 MBq/500 µL PBS
Protocol: The radiolabeling of DOTA-ALBs was carried out under standard labeling conditions at pH 4.5. The ligands (10−100 μM) were mixed with lutetium-177 (no-carrier added [^177Lu]LuCl3; in 0.04 M HCl; ITM GmbH Medical Isotopes, Munich, Germany) to reach molar activities of 25–50 MBq/nmol (Supplementary Materials Section S2). An analytical HPLC system equipped with a C18 column and a radioactivity detector was used for quality control of the radiolabeled DOTA-ALBs (Supplementary Materials Section S2). The ^177Lu-DOTA-ALBs were used for preclinical investigations without separation of the labeled from the unlabeled fraction. The radiolytic stability of the ^177Lu-DOTA-ALBs (50 MBq/nmol) diluted in phosphate-buffered saline (PBS; 100 MBq/500 μL) was assessed in vitro in the absence and presence of L-ascorbic acid (Supplementary Materials Section S3). The n-octanol/PBS distribution coefficients (logD values) were determined using a shake-flask method according to an established protocol (Supplementary Materials Section S4). The logD values were analyzed using a one-way ANOVA with Tukey’s multiple comparisons post-test using GraphPad Prism software (version 8). A p-value of <0.05 was considered a statistically significant difference. […]
S2. Radiolabeling of DOTA-ALBs with Lutetium-177
Purpose: The DOTA-ALBs were labeled with lutetium-177 for subsequent in vitro and […]
Methods: The DOTA-ALBs were dissolved in Milli-Q water at a concentration of 1 mM. Radiolabeling was performed by incubation of the respective DOTA-ALBs with lutetium-177 (no-carrier-added, in 0.04 M HCl; ITM Medical Isotopes GmbH, Munich, Germany) at 95 °C for 10 min in a 1:5 (v/v) mixture of sodium acetate (0.5 M) and HCl (0.05 M) at pH ~4.5 as previously reported. Quality control was performed by reversed-phase HPLC using an aliquot of the radiolabeled DOTA-ALBs (⁓1.5 MBq) diluted in Milli-Q water containing penta-sodium diethylenetriamine pentaacetic acid (Na5-DTPA; 50 µM). The HPLC system (Merck Hitachi LaChrom HPLC) was equipped with a D-7000 interface, a radioactivity detector (LB 508, Berthold Technologies GmbH), a L-6200A pump and a reversed-phase C18 column (XterraTM, 5 µm, 4.6×150 mm, Waters, USA). A linear gradient of 0.1% TFA in Milli-Q water (95–20%) and MeCN (5–80%) over 15 min was used as a mobile phase at a 1 mL/min flow rate. […]
to 50 MBq/nmol. The 177Lu-DOTA-ALBs were used without further purification for their in vitro and in vivo evaluation.
S3. Radiolytic Stability of 177Lu-DOTA-ALBs
Purpose: The stability of each 177Lu-labeled DOTA-ALB was assessed at a high activ-ity concentration to assess potential radiolytic degradation in the absence and presence of […]
Methods: After quality control of the labeled DOTA-ALBs using HPLC (t0), the radio-labeled DOTA-ALBs (50 MBq/nmol) were diluted in PBS pH 7.4 to obtain an activity con-centration of 100 MBq/500 µL. The samples were incubated at room temperature in the absence or presence of L-ascorbic acid (3 mg). Sodium acetate solution (0.5 M, pH 8.0, 150 µL) was added to the samples containing L-ascorbic acid in order to adjust the pH value to ⁓6.5. The integrity of the radiolabeled DOTA-ALBs was assessed after a 4 h- and 24 h-incubation period using HPLC as described above (Supplementary Material, Section S2). The HPLC chromatograms were analyzed by determination of the peak area of the radio-labeled DOTA-ALBs, the released lutetium-177 as well as potential degradation products of unknown structure. The quantity of the intact product was expressed as per-centage of the sum of integrated peak areas of the entire chromatogram and set in relation to the original value determined at t0 (radiochemical purity ≥95% set as 100%).
Results: The results are reported in the main article and presented together with the retention times of the product peak in Table S2.
Table S2. Radiolytic stability of 177Lu-DOTA-ALBs after incubation in the absence or presence of L-ascorbic acid at room temperature (average of n=2 individually performed experiments). […]

[2] = target: T1, mouse serum albumin (MSA) in mouse plasma (Mus musculus, UniProt P07724); test: Ultrafiltration albumin-binding assay of 177Lu-RedFols, mouse plasma; conditions: for Relative albumin-binding affinity: mouse blood plasma, inverse B50 ratio, normalized to the respective (6R or 6S) RedFol-1, set as 1.0; for Albumin-bound fraction: undiluted mouse blood plasma
T1 construct: tissue Rockland Immunochemicals, Inc. Lot No. 32321; host or cells: mouse blood plasma, undiluted and diluted in PBS
T1 sequence (P07724 25-608): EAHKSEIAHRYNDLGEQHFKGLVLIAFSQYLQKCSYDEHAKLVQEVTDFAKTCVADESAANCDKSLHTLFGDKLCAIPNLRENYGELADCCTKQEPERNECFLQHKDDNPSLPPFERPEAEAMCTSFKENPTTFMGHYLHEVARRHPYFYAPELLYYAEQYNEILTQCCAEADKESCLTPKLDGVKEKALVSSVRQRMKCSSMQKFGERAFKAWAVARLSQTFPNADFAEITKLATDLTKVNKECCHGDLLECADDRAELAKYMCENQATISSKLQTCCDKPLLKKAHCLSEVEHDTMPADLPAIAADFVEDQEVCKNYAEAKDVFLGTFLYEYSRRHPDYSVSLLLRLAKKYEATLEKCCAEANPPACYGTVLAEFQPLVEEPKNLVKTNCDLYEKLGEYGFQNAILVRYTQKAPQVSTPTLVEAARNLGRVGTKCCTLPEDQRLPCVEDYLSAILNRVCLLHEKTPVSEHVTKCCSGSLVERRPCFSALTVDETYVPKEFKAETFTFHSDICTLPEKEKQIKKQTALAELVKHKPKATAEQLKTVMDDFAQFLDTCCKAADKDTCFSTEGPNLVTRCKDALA
Protocol: S11. Relative Albumin-Binding Properties of 177Lu-RedFols
human blood plasma was determined and compared.
Switzerland; HSA: ⁓800 µM), respectively. An ultrafiltration method was applied accord-
ples at 37 °C for 30 min.
unbound) fractions of each sample. The inserts of the filter devices were inverted and
were presented as average of 3 independent experiments.

| Compound | Intact radioligand ([1]; with L-ascorbic acid, 4 h) [%] | Intact radioligand ([1]; with L-ascorbic acid, 24 h) [%] | Intact radioligand ([1]; without L-ascorbic acid, 4 h) [%] | Intact radioligand ([1]; without L-ascorbic acid, 24 h) [%] | Relative albumin-binding affinity [2] | Albumin-bound fraction [2] [%] |
| --- | --- | --- | --- | --- | --- | --- |
| O=C(O)CN1CCN(CC(=O)O)CCN(CC(=O)NCCC(=O)N[C@@H](CCCCNC(=O)CCCCc2ccc(I)cc2)C(=O)O)CCN(CC(=O)O)CC1.[177Lu] [[^177Lu]Lu-DOTA-ALB-24] | 99 | 95 | 88 | 39 |  |  |
| CN1c2c(nc(N)[nH]c2=O)NC[C@H]1CNc1ccc(C(=O)N[C@@H](CCC(=O)N[C@@H](CCCCNC(=O)CN2CCN(CC(=O)O)CCN(CC(=O)O)CCN(CC(=O)O)CC2)C(=O)N[C@@H](CCCCNC(=O)c2ccc(CNC(=O)CCCc3ccc(I)cc3)cc2)C(=O)O)C(=O)O)cc1 [[^177Lu]Lu-6R-RedFol-3, metal not drawn] |  |  |  |  | 8.4 | 97 |
| O=C(O)CN1CCN(CC(=O)O)CCN(CC(=O)NCCC(=O)N[C@@H](CCCCNC(=O)c2ccc(CNC(=O)CCCc3ccc(I)cc3)cc2)C(=O)O)CCN(CC(=O)O)CC1.[177Lu] [[^177Lu]Lu-DOTA-ALB-3] | 99 | 97 | 89 | 39 |  |  |
| CN1c2c(nc(N)[nH]c2=O)NC[C@H]1CNc1ccc(C(=O)N[C@@H](CCC(=O)N[C@@H](CCCCNC(=O)CN2CCN(CC(=O)O)CCN(CC(=O)O)CCN(CC(=O)O)CC2)C(=O)N[C@@H](CCCCNC(=O)c2ccc(CNC(=O)CCCCc3ccc(I)cc3)cc2)C(=O)O)C(=O)O)cc1 [[^177Lu]Lu-6R-RedFol-25, metal not drawn] |  |  |  |  | 1.4 | 94 |
| CN1c2c(nc(N)[nH]c2=O)NC[C@H]1CNc1ccc(C(=O)N[C@@H](CCC(=O)N[C@@H](CCCCNC(=O)CN2CCN(CC(=O)O)CCN(CC(=O)O)CCN(CC(=O)O)CC2)C(=O)N[C@@H](CCCCNC(=O)CCCCc2ccc(I)cc2)C(=O)O)C(=O)O)cc1 [[^177Lu]Lu-6R-RedFol-24, metal not drawn] |  |  |  |  | 0.2 | 73 |
| O=C(O)CN1CCN(CC(=O)O)CCN(CC(=O)NCCC(=O)N[C@@H](CCCCNC(=O)CCCc2ccc(I)cc2)C(=O)O)CCN(CC(=O)O)CC1.[177Lu] [[^177Lu]Lu-DOTA-ALB-1] | 99 | 96 | 92 | 51 |  |  |
| CN1c2c(nc(N)[nH]c2=O)NCC1CNc1ccc(C(=O)NC(CCC(=O)NC(CCCCNC(=O)CN2CCN(CC(=O)[O-])CCN(CC(=O)[O-])CCN(CC(=O)[O-])CC2)C(=O)NC(CCCCNC(=O)c2ccc(CNC(=O)CCCc3ccc(I)cc3)cc2)C(=O)O)C(=O)O)cc1.[177Lu+3] (stereo not drawn) [[^177Lu]Lu-6S-RedFol-3] |  |  |  |  | 3.5 | 97 |
| CN1c2c(nc(N)[nH]c2=O)NCC1CNc1ccc(C(=O)NC(CCC(=O)NC(CCCCNC(=O)CN2CCN(CC(=O)[O-])CCN(CC(=O)[O-])CCN(CC(=O)[O-])CC2)C(=O)NC(CCCCNC(=O)CCCc2ccc(I)cc2)C(=O)O)C(=O)O)cc1.[177Lu+3] (stereo not drawn) [[^177Lu]Lu-6S-RedFol-1] |  |  |  |  | 1.0 | 93 |
| O=C(O)CN1CCN(CC(=O)O)CCN(CC(=O)NCCC(=O)N[C@@H](CCCCNC(=O)c2ccc(CNC(=O)CCCCc3ccc(I)cc3)cc2)C(=O)O)CCN(CC(=O)O)CC1.[177Lu] [[^177Lu]Lu-DOTA-ALB-25] | 99 | 97 | 91 | 41 |  |  |
| CN1c2c(nc(N)[nH]c2=O)NCC1CNc1ccc(C(=O)NC(CCC(=O)NC(CCCCNC(=O)CN2CCN(CC(=O)[O-])CCN(CC(=O)[O-])CCN(CC(=O)[O-])CC2)C(=O)NC(CCCCNC(=O)c2ccc(CNC(=O)CCCCc3ccc(I)cc3)cc2)C(=O)O)C(=O)O)cc1.[177Lu+3] (stereo not drawn) [[^177Lu]Lu-6S-RedFol-25] |  |  |  |  | 0.7 | 92 |
| CN1c2c(nc(N)[nH]c2=O)NC[C@H]1CNc1ccc(C(=O)N[C@@H](CCC(=O)N[C@@H](CCCCNC(=O)CN2CCN(CC(=O)O)CCN(CC(=O)O)CCN(CC(=O)O)CC2)C(=O)N[C@@H](CCCCNC(=O)CCCc2ccc(I)cc2)C(=O)O)C(=O)O)cc1 [[^177Lu]Lu-6R-RedFol-1, metal not drawn] |  |  |  |  | 1.0 | 93 |
